The results in this text go back to patent US12258327B2, “5-membered heteroaryl-containing aminopyridine compounds as EGFR inhibitors” (YUHAN CORPORATION, priority 2021, dated 2025).

Where two headings read alike, the source gives them in different places. Where only a bound is given, the exact number is not on record here.

For one experiment, the target named is EGFR del19/T790M/C797S (Homo sapiens, UniProt P00533, C797S/DEL746-750/T790M). The experiment in a line: Biochemical EGFR kinase assay (Lance Ultra TR-FRET), triple mutant del19/T790M/C797S. Here is the method: (§1) Biochemical EGFR kinase assays were conducted using Lance Ultra time-resolved fluorescence resonance energy transfer (TR-FRET) technology from Perkin-Elmer. Compounds of the invention were initially diluted to 20 mM in 100% DMSO for storage and made into kinase buffer solution to create a compound concentration ranging from 0.003 μM and 10 μM.
Chain of EGFR del19/T790M/C797S (P00533 with tags, fused parts or gaps DEL746-750/T790M/C797S): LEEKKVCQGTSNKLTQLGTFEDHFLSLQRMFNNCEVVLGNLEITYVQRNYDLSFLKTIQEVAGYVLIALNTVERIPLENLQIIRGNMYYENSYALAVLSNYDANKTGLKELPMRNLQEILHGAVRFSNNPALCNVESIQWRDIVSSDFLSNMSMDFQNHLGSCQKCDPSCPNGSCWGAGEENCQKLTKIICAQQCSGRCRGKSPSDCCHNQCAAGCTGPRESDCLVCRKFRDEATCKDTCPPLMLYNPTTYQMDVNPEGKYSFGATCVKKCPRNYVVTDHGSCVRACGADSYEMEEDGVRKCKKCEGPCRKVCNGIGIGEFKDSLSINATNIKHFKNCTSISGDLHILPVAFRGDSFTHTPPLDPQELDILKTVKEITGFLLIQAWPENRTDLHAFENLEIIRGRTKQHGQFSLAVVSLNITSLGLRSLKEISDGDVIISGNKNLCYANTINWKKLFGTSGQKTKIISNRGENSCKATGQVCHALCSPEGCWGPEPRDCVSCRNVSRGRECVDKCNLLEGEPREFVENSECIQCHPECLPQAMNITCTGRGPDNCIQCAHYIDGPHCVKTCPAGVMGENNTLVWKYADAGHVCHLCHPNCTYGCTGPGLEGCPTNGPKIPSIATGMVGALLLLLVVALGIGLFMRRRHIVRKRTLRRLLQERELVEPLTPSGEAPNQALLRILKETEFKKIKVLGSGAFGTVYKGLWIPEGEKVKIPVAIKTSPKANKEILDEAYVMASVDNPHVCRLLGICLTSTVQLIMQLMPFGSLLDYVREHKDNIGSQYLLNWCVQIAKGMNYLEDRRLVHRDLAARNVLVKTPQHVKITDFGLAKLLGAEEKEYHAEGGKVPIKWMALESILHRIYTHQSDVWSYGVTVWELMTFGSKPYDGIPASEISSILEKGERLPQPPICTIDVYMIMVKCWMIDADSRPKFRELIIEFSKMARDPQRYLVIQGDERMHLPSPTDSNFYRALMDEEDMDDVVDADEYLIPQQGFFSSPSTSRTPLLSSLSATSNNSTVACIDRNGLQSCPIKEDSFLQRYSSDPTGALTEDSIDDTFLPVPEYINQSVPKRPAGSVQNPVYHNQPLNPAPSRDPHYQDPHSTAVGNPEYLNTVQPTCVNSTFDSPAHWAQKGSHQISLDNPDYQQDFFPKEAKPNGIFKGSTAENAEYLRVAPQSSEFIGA
(§2) Each kinase reactions were incubated at room temperature for 1 hour and then stopped by the addition of 4 μL of stop solution (10 mM EDTA). The specific Europium-labeled-anti-phosphopeptide antibody (PerkinElmer, AD0069) diluted in LANCE detection buffer was then added to a final concentration of 2 nM. After 60 minutes incubation at room temperature the LANCE signal was measured on an EnVision Multilabel Reader (Perkin-Elmer). Excitation wavelength was set at 320 nm and emission monitored at 615 nm (donor) and 665 nm (acceptor). The IC50 values were determined using GraphPad prism software (GraphPad Software, Inc., San Diego, CA, USA).

The next experiment has as its target EGFR L858R/T790M/C797S (Homo sapiens, UniProt P00533, C797S/L858R/T790M). The experiment in a line: Biochemical EGFR kinase assay (Lance Ultra TR-FRET), triple mutant L858R/T790M/C797S. As to the method:
as §1, §2

The target of another experiment is EGFR L858R/C797S (Homo sapiens, UniProt P00533, C797S/L858R). The experiment in a line: Biochemical EGFR kinase assay (Lance Ultra TR-FRET), double mutant L858R/C797S. Here is the method:
as §1, §2

Another experiment concerns the target EGFR wildtype (WT) (Homo sapiens, UniProt P00533). Put plainly: Biochemical EGFR kinase assay (Lance Ultra TR-FRET), wildtype. As to the method:
as §1, §2

For the next experiment, the target named is EGFR del19/C797S (Homo sapiens, UniProt P00533, C797S/DEL746-750). Put plainly: Biochemical EGFR kinase assay (Lance Ultra TR-FRET), double mutant del19/C797S. The note with it: Km ATP; read-out: IC50 del19/C797S (nM) Km ATP. As to the method: as §1, §2
Chain of EGFR del19/C797S (P00533 with tags, fused parts or gaps DEL746-750/C797S): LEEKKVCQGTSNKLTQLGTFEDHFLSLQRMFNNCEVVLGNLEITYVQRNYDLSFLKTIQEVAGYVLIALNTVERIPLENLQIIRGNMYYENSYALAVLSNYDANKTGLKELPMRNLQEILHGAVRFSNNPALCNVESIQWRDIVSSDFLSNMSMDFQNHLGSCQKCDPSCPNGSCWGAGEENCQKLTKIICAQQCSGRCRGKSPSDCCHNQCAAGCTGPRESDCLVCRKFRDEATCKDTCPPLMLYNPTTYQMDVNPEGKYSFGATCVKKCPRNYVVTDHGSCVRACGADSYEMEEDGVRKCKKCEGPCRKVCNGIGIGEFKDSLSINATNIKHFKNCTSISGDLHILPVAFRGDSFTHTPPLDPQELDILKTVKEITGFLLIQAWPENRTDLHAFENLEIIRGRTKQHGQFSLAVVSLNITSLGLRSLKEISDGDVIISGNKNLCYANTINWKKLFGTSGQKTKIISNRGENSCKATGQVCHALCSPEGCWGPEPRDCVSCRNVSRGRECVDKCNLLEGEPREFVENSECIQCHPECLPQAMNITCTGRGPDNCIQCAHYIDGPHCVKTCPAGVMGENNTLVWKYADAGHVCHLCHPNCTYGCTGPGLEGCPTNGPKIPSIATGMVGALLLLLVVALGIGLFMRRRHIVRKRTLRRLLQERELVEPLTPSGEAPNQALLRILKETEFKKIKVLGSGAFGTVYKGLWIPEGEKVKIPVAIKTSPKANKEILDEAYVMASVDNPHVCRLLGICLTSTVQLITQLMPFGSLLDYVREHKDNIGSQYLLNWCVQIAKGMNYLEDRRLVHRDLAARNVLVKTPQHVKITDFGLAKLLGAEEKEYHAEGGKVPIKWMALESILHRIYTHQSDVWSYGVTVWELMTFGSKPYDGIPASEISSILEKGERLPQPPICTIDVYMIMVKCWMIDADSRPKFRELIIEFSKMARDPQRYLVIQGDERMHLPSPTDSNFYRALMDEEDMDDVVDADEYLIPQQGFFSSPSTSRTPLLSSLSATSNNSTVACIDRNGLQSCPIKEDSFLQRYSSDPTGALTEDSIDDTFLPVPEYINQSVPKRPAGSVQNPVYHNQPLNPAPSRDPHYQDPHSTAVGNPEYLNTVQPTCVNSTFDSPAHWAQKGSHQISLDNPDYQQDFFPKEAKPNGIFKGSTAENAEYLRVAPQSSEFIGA
The mark [1] stands for this setting: IC50 del19/T790M/C797S (nM) 100 μM ATP, 100 μM ATP.
The mark [2] stands for this setting: Km ATP, read-out: IC50 del19/T790M/C797S (nM) Km ATP.
The mark [3] stands for this setting: IC50 L858R/T790M/C797S (nM) 100 μM ATP, 100 μM ATP.
Setting [4] is: Km ATP, read-out: IC50 L858R/T790M/C797S (nM) Km ATP.
Where [5] appears, read: IC50 L858R/C797S (nM) 100 μM ATP, 100 μM ATP.
Where [6] appears, read: Km ATP, read-out: IC50 L858R/C797S (nM) Km ATP.
Where [7] appears, read: IC50 WT (nM) 100 μM ATP, 100 μM ATP.
Where [8] appears, read: Km ATP, read-out: IC50 WT (nM) Km ATP.

Chain of EGFR L858R/T790M/C797S (P00533 25-1210 T790M/C797S/L858R): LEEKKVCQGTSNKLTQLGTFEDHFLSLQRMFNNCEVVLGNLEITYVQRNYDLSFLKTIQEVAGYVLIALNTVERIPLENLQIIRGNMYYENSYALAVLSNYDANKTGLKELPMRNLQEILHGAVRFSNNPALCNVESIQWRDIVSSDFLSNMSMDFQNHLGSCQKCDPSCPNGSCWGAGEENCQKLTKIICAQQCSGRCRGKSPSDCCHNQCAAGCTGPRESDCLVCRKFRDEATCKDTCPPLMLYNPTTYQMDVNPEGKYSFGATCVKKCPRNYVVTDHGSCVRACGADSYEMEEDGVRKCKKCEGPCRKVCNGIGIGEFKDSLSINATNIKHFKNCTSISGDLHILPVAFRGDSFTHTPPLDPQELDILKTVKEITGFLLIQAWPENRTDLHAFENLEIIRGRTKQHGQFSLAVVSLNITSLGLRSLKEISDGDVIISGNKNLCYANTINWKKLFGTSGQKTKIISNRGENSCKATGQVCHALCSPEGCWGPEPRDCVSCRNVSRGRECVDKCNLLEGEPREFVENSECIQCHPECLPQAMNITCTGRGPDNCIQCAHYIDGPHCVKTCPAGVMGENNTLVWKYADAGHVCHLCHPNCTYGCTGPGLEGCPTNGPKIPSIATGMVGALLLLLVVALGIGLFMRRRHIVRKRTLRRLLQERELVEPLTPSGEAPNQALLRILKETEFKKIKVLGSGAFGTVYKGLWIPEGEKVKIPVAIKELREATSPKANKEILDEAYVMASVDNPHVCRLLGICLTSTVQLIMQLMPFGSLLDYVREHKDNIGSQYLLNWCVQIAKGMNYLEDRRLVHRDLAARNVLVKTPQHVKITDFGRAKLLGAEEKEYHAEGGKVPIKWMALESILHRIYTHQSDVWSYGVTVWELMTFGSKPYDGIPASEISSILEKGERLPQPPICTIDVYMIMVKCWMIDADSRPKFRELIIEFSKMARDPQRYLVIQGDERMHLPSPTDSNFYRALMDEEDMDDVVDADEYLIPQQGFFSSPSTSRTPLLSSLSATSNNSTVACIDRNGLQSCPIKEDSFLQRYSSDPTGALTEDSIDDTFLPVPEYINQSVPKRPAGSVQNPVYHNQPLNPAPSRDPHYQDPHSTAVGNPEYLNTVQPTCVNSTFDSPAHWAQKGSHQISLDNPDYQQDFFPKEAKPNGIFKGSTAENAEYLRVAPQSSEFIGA
Chain of EGFR wildtype (WT) (P00533 25-1210): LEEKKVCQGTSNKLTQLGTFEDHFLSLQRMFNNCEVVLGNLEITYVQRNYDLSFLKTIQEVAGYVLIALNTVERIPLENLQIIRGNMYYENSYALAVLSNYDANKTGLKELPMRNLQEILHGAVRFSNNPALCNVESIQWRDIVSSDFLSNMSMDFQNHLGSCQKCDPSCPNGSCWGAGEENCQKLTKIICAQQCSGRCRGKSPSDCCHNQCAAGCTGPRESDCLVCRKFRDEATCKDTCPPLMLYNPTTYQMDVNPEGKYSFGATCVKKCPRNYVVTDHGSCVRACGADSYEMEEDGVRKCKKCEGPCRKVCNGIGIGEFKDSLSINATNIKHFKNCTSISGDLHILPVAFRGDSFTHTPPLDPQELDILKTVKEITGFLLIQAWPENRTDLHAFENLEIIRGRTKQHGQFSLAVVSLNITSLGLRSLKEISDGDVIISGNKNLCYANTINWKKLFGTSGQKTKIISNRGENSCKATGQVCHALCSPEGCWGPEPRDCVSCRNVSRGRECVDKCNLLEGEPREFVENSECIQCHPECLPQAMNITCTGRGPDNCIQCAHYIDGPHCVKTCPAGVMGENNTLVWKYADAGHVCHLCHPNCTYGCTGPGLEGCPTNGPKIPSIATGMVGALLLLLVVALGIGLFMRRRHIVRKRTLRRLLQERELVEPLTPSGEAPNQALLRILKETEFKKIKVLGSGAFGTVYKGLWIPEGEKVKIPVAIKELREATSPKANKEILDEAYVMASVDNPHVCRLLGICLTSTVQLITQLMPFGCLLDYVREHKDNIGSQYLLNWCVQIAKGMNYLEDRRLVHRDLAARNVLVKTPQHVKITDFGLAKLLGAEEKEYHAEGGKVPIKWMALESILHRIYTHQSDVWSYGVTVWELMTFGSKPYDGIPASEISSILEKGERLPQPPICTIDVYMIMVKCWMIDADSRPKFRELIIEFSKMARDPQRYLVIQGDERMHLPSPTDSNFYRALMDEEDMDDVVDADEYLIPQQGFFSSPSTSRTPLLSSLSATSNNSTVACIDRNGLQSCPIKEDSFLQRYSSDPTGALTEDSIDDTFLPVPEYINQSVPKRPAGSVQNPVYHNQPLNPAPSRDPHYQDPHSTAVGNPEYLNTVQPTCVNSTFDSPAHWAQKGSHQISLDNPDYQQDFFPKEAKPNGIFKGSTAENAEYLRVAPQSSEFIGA

In the case of `CC(C)(O)[C@H]1CC[C@@H](Nc2cc(Nc3ccnc(-c4cnn(S(=O)(=O)C5CC5)c4)n3)ncc2-c2ccn(C3COC3)n2)CC1` [Example 283, 2-((1s,4s)-4-((2-((2-(1-(Cyclopropylsulfonyl)-1H-pyrazol-4-yl)pyrimidin-4-yl)amino)-5-(1-(oxetan-3-yl)-1H-pyrazol-3-yl)pyridin-4-yl)amino)cyclohexyl)propan-2-ol], the IC50 stood at 0.6 nM against EGFR del19/T790M/C797S (setting [1]); 0.6 nM at EGFR del19/T790M/C797S (setting [2]); 0.5 nM against EGFR L858R/T790M/C797S (setting [3]); 0.3 nM on EGFR L858R/T790M/C797S (setting [4]); 2.9 nM against EGFR L858R/C797S (setting [5]); 0.6 nM at EGFR L858R/C797S (setting [6]). Moreover, the values for the IC50 against EGFR wildtype (WT) (setting [7]) and on EGFR wildtype (WT) (setting [8]) were 2000 nM and 4.8 nM, respectively.

Turning to `CC1(O)CCC(Nc2cc(Nc3ccnc(-c4cnn(S(=O)(=O)C5CCOC5)c4)n3)ncc2-c2ccn(C(F)F)n2)CC1` (centres unmarked) [Example 114, (1s,4s)-4-((5-(1-(Difluoromethyl)-1H-pyrazol-3-yl)-2-((2-(1-((tetrahydrofuran-3-yl)sulfonyl)-1H-pyrazol-4-yl)pyrimidin-4-yl)amino)pyridin-4-yl)amino)-1-methylcyclohexan-1-ol], the IC50 at EGFR del19/T790M/C797S (setting [2]) is 0.6 nM; at EGFR L858R/T790M/C797S (setting [4]) it was 0.2 nM; at EGFR L858R/C797S (setting [6]), 1 nM; at EGFR wildtype (WT) (setting [8]), 4.2 nM.

With `CN(C)CC1(C)CCC(Nc2cc(Nc3ccnc(-c4cnn(S(=O)(=O)C5CC5)c4)n3)ncc2-c2ccn(C(F)F)n2)CC1` (centres unmarked) [Example 207, N^2-(2-(1-(Cyclopropylsulfonyl)-1H-pyrazol-4-yl)pyrimidin-4-yl)-5-(1-(difluoromethyl)-1H-pyrazol-3-yl)-N^4-(4-((dimethylamino)methyl)-4-methylcyclohexyl)pyridine-2,4-diamine], the IC50 against EGFR del19/T790M/C797S (setting [1]) worked out at 0.7 nM; at EGFR del19/T790M/C797S (setting [2]), 0.8 nM; against EGFR L858R/T790M/C797S (setting [3]), 1 nM; at EGFR L858R/T790M/C797S (setting [4]), 0.3 nM; against EGFR L858R/C797S (setting [5]), 200 nM; on EGFR L858R/C797S (setting [6]), 10.5 nM. Also, the IC50 at EGFR wildtype (WT) (setting [7]) amounted to 5120 nM; on EGFR wildtype (WT) (setting [8]) it was 15.3 nM.

For the compound `C[C@]1(O)CC[C@@H](Nc2cc(Nc3ccnc(-c4cnn(S(=O)(=O)C5CC5)c4)n3)ncc2-c2nc(C(F)F)cs2)CC1` [Example 122, (1s,4s)-4-((2-((2-(1-(Cyclopropylsulfonyl)-1H-pyrazol-4-yl)pyrimidin-4-yl)amino)-5-(4-(difluoromethyl)thiazol-2-yl)pyridin-4-yl)amino)-1-methylcyclohexan-1-ol], the IC50 amounted to 0.6 nM on EGFR del19/T790M/C797S (setting [1]); 0.4 nM against EGFR L858R/T790M/C797S (setting [3]); 0.3 nM on EGFR L858R/T790M/C797S (setting [4]); 8.5 nM at EGFR L858R/C797S (setting [5]); 1420 nM against EGFR wildtype (WT) (setting [7]); 9 nM at EGFR wildtype (WT) (setting [8]).

For the compound `Cn1cc(C#Cc2cc(Nc3ccnc(-c4cnn(S(=O)(=O)C5CC5)c4)n3)ncc2-c2cnn(C(F)F)c2)cn1` [Example 2, 2-(1-(Cyclopropylsulfonyl)-1H-pyrazol-4-yl)-N-(5-(1-(difluoromethyl)-1H-pyrazol-4-yl)-4-((1-methyl-1H-pyrazol-4-yl)ethynyl)pyridin-2-yl)pyrimidin-4-amine], the IC50 at EGFR del19/T790M/C797S (setting [2]) was 31.3 nM; on EGFR del19/C797S, 371 nM.

Consider `C[C@]1(O)CC[C@@H](Nc2cc(Nc3ccnc(-c4cnn(S(=O)(=O)C5CC5)c4)n3)ncc2-n2ccc(C(F)F)n2)CC1` [Example 172, (1s,4s)-4-((2-((2-(1-(Cyclopropylsulfonyl)-1H-pyrazol-4-yl)pyrimidin-4-yl)amino)-5-(3-(difluoromethyl)-1H-pyrazol-1-yl)pyridin-4-yl)amino)-1-methylcyclohexan-1-ol], for which the IC50 at EGFR del19/T790M/C797S (setting [2]) worked out at 0.3 nM; on EGFR L858R/T790M/C797S (setting [4]), 0.1 nM; on EGFR L858R/C797S (setting [6]) it was 9.3 nM; at EGFR wildtype (WT) (setting [8]), 3.4 nM.

Turning to `CN1CCN(c2nc(-c3cnc(Nc4ccnc(-c5cnn(S(=O)(=O)C6CC6)c5)n4)cc3N[C@H]3CC[C@@](C)(O)CC3)cs2)CC1` [Example 121, (1s,4s)-4-((2-((2-(1-(Cyclopropylsulfonyl)-1H-pyrazol-4-yl)pyrimidin-4-yl)amino)-5-(2-(4-methylpiperazin-1-yl)thiazol-4-yl)pyridin-4-yl)amino)-1-methylcyclohexan-1-ol], the IC50 against EGFR del19/T790M/C797S (setting [1]) turned out to be 1.7 nM; on EGFR del19/T790M/C797S (setting [2]) it was 1.2 nM; against EGFR L858R/T790M/C797S (setting [3]) it was 1.4 nM; at EGFR L858R/T790M/C797S (setting [4]), 0.4 nM; at EGFR L858R/C797S (setting [5]) it was 19.8 nM; at EGFR L858R/C797S (setting [6]), 2.4 nM. The figures for the IC50 at EGFR wildtype (WT) (setting [7]) and at EGFR wildtype (WT) (setting [8]) were 8920 nM and 12.8 nM, respectively.

As for `Cn1nc(-c2cnc(Nc3ccnc(-c4cnn(S(=O)(=O)C5CC5)c4)n3)cc2N[C@H]2CC[C@@](C)(O)CC2)cc1N1CCC(F)(F)CC1` [Example 307, (1s,4s)-4-((2-((2-(1-(Cyclopropylsulfonyl)-1H-pyrazol-4-yl)pyrimidin-4-yl)amino)-5-(5-(4,4-difluoropiperidin-1-yl)-1-methyl-1H-pyrazol-3-yl)pyridin-4-yl)amino)-1-methylcyclohexan-1-ol], the IC50 at EGFR del19/C797S came out at 7.5 nM; on EGFR wildtype (WT) (setting [8]), 20.9 nM.

For the compound `O=S(=O)(C1CC1)n1cc(-c2nccc(Nc3cc(C#Cc4cnn(C5CC5)c4)c(-c4cnn(C5CC5)c4)cn3)n2)cn1` [Example 5, N-(5-(1-Cyclopropyl-1H-pyrazol-4-yl)-4-((1-cyclopropyl-1H-pyrazol-4-yl)ethynyl)pyridin-2-yl)-2-(1-(cyclopropylsulfonyl)-1H-pyrazol-4-yl)pyrimidin-4-amine], the IC50 is 10.6 nM at EGFR del19/T790M/C797S (setting [2]), 13.2 nM on EGFR L858R/T790M/C797S (setting [4]) and 317 nM at EGFR del19/C797S.

Take `Cn1ccc(-c2cnc(Nc3ccnc(-c4cnn(S(=O)(=O)C5CC5)c4)n3)cc2N[C@H]2CC[C@@H](C(C)(C)O)CC2)n1` [Example 42, 2-((1s,4s)-4-((2-((2-(1-(Cyclopropylsulfonyl)-1H-pyrazol-4-yl)pyrimidin-4-yl)amino)-5-(1-methyl-1H-pyrazol-3-yl)pyridin-4-yl)amino)cyclohexyl)propan-2-ol]: the IC50 on EGFR del19/T790M/C797S (setting [1]) is 1.4 nM; on EGFR del19/T790M/C797S (setting [2]) it was 0.9 nM; against EGFR L858R/T790M/C797S (setting [3]), 1.9 nM; on EGFR L858R/T790M/C797S (setting [4]), 0.6 nM; against EGFR L858R/C797S (setting [5]), 11.3 nM; on EGFR L858R/C797S (setting [6]), 1 nM. The IC50 against EGFR wildtype (WT) (setting [7]) is 7830 nM.

For the compound `CC(C)n1ccc(-c2cnc(Nc3ccnc(-c4cnn(S(=O)(=O)C5CC5)c4)n3)cc2N[C@H]2CC[C@@](C)(O)CC2)n1` [Example 84, (1s,4s)-4-((2-((2-(1-(Cyclopropylsulfonyl)-1H-pyrazol-4-yl)pyrimidin-4-yl)amino)-5-(1-isopropyl-1H-pyrazol-3-yl)pyridin-4-yl)amino)-1-methylcyclohexan-1-ol], the IC50 on EGFR del19/T790M/C797S (setting [1]) was 0.6 nM; against EGFR L858R/T790M/C797S (setting [3]), 1 nM; on EGFR L858R/C797S (setting [5]) it was 6.7 nM; against EGFR wildtype (WT) (setting [7]) it was > 10000 nM.

As to `CC(C)n1cc(C#Cc2cc(Nc3ccnc(-c4cnn(S(=O)(=O)C5CC5)c4)n3)ncc2-c2cnn(C3CC3)c2)cn1` [Example 6, N-(5-(1-Cyclopropyl-1H-pyrazol-4-yl)-4-((1-isopropyl-1H-pyrazol-4-yl)ethynyl)pyridin-2-yl)-2-(1-(cyclopropylsulfonyl)-1H-pyrazol-4-yl)pyrimidin-4-amine], the values for the IC50 on EGFR del19/T790M/C797S (setting [2]), at EGFR L858R/T790M/C797S (setting [4]) and at EGFR del19/C797S were 16.1 nM, 19.5 nM and 347 nM, respectively.

For the compound `Cn1cc(C#Cc2cc(Nc3ccnc(-c4cnn(S(=O)(=O)C5CC5)c4)n3)ncc2-c2cnn(CC3CC3)c2)cn1` [Example 3, N-(5-(1-(Cyclopropylmethyl)-1H-pyrazol-4-yl)-4-((1-methyl-1H-pyrazol-4-yl)ethynyl)pyridin-2-yl)-2-(1-(cyclopropylsulfonyl)-1H-pyrazol-4-yl)pyrimidin-4-amine], the IC50 on EGFR del19/T790M/C797S (setting [2]) was found to be 6.4 nM; at EGFR del19/C797S it was 39.7 nM; at EGFR wildtype (WT) (setting [8]), 229 nM.
